Where “and” joins values, the source holds several entries; their conditions need not be identical. Equal values may be shown once.
Key:
[1] = Safety and tolerability, study 1 MAD part; format: in vivo, human
Description: Safety and tolerability were assessed on the basis of adverse events (AEs), which were monitored throughout both studies. Additional safety assessments included vital signs (including supine [and standing in study 2] heart rate, systolic and diastolic blood pressure, and oral body temperature), 12‐lead electrocardiogram (ECG), clinical laboratory tests (hematology, coagulation [study 2 only], serum/plasma chemistry, urinalysis, urine drug screen, serology, and alcohol breath test), and a comprehensive physical examination. […] In the MAD part of study 1, all additional safety assessments were performed at screening; days 1, 2, 8, 14, and 15; and at follow‐up. In study 2, additional safety assessments were performed at screening (between 21 and 2 days before the first study drug administration); days 1, 2, 5, 10, 14, 15, and 20 (clinical laboratory tests were not performed on day 20); at early discontinuation; and at follow‐up. For study 2, renal function tests (measurement of estimated creatinine clearance rate using the Cockcroft‐Gault equation) were also included in the clinical laboratory tests for safety assessment.
In both studies, the safety analysis was descriptive and focused on changes from baseline and treatment‐emergent findings.

[2] = design: method as in PMID 32902984; details: mouse, rat, and dog; cited from earlier work

O=c1nc(OC[C@@H]2COCCO2)cc2n1CCc1cc(C#CC3CC3)ccc1-2 [GLPG1205, 9‐cyclopropylethynyl‐2‐((S)‐1‐[1,4]dioxan‐2‐ylmethoxy)‐6,7‐dihydropyrimido[6,1‐a]isoquinolin‐4‐one]
Abdominal discomfort (TEAE) ([1]; 50 mg QD (n = 6)): 0 number of subjects (%)
Abdominal distension (TEAE) ([1]; 50 mg QD (n = 6)): 0 number of subjects (%)
Abdominal pain (TEAE) ([1]; 50 mg QD (n = 6)): 0 number of subjects (%)
Abdominal pain upper (TEAE) ([1]; 50 mg QD (n = 6)): 0 number of subjects (%)
Any TEAE ([1]; 50 mg QD (n = 6)): 2 (33.3) number of subjects (%)
Decreased appetite (TEAE) ([1]; 50 mg QD (n = 6)): 0 number of subjects (%)
Dehydration (TEAE) ([1]; 50 mg QD (n = 6)): 0 number of subjects (%)
Diarrhea (TEAE) ([1]; 50 mg QD (n = 6)): 1 (16.7) number of subjects (%)
Disturbance in attention (TEAE) ([1]; 50 mg QD (n = 6)): 0 number of subjects (%)
Dizziness (TEAE) ([1]; 50 mg QD (n = 6)): 0 number of subjects (%)
Dry skin (TEAE) ([1]; 50 mg QD (n = 6)): 1 (16.7) number of subjects (%)
Ecchymosis (TEAE) ([1]; 50 mg QD (n = 6)): 0 number of subjects (%)
Erythema (TEAE) ([1]; 50 mg QD (n = 6)): 0 number of subjects (%)
Fatigue (TEAE) ([1]; 50 mg QD (n = 6)): 0 number of subjects (%)
Flatulence (TEAE) ([1]; 50 mg QD (n = 6)): 0 number of subjects (%)
Gastrointestinal disorders (TEAE) ([1]; 50 mg QD (n = 6)): 1 (16.7) number of subjects (%)
General disorders and administration site conditions (TEAE) ([1]; 50 mg QD (n = 6)): 0 number of subjects (%)
Headache (TEAE) ([1]; 50 mg QD (n = 6)): 0 number of subjects (%)
Hot flush (TEAE) ([1]; 50 mg QD (n = 6)): 0 number of subjects (%)
Metabolism and nutrition disorders (TEAE) ([1]; 50 mg QD (n = 6)): 0 number of subjects (%)
Musculoskeletal and connective tissue disorders (TEAE) ([1]; 50 mg QD (n = 6)): 0 number of subjects (%)
Musculoskeletal stiffness (TEAE) ([1]; 50 mg QD (n = 6)): 0 number of subjects (%)
Nausea (TEAE) ([1]; 50 mg QD (n = 6)): 0 number of subjects (%)
Nervous system disorders (TEAE) ([1]; 50 mg QD (n = 6)): 0 number of subjects (%)
Oropharyngeal pain (TEAE) ([1]; 50 mg QD (n = 6)): 0 number of subjects (%)
Respiratory, thoracic, and mediastinal disorders (TEAE) ([1]; 50 mg QD (n = 6)): 0 number of subjects (%)
Skin and subcutaneous tissue disorders (TEAE) ([1]; 50 mg QD (n = 6)): 1 (16.7) number of subjects (%)
Somnolence (TEAE) ([1]; 50 mg QD (n = 6)): 0 number of subjects (%)
Vascular disorders (TEAE) ([1]; 50 mg QD (n = 6)): 0 number of subjects (%)
Vomiting (TEAE) ([1]; 50 mg QD (n = 6)): 0 number of subjects (%)
subjects with treatment-emergent abnormality during physical examination ([1]; 50 mg once daily): 1 n
Abdominal discomfort (TEAE) ([1]; 100 mg QD (n = 6)): 1 (16.7) number of subjects (%)
Abdominal distension (TEAE) ([1]; 100 mg QD (n = 6)): 0 number of subjects (%)
Abdominal pain (TEAE) ([1]; 100 mg QD (n = 6)): 0 number of subjects (%)
Abdominal pain upper (TEAE) ([1]; 100 mg QD (n = 6)): 1 (16.7) number of subjects (%)
Any TEAE ([1]; 100 mg QD (n = 6)): 5 (83.3) number of subjects (%)
Decreased appetite (TEAE) ([1]; 100 mg QD (n = 6)): 0 number of subjects (%)
Dehydration (TEAE) ([1]; 100 mg QD (n = 6)): 0 number of subjects (%)
Diarrhea (TEAE) ([1]; 100 mg QD (n = 6)): 2 (33.3) number of subjects (%)
Disturbance in attention (TEAE) ([1]; 100 mg QD (n = 6)): 0 number of subjects (%)
Dizziness (TEAE) ([1]; 100 mg QD (n = 6)): 0 number of subjects (%)
Dry skin (TEAE) ([1]; 100 mg QD (n = 6)): 0 number of subjects (%)
Ecchymosis (TEAE) ([1]; 100 mg QD (n = 6)): 1 (16.7) number of subjects (%)
Erythema (TEAE) ([1]; 100 mg QD (n = 6)): 1 (16.7) number of subjects (%)
Fatigue (TEAE) ([1]; 100 mg QD (n = 6)): 0 number of subjects (%)
Flatulence (TEAE) ([1]; 100 mg QD (n = 6)): 0 number of subjects (%)
Gastrointestinal disorders (TEAE) ([1]; 100 mg QD (n = 6)): 3 (50.0) number of subjects (%)
General disorders and administration site conditions (TEAE) ([1]; 100 mg QD (n = 6)): 0 number of subjects (%)
Headache (TEAE) ([1]; 100 mg QD (n = 6)): 3 number of subjects (%) and 3 (50.0) number of subjects (%)
Hot flush (TEAE) ([1]; 100 mg QD (n = 6)): 0 number of subjects (%)
Metabolism and nutrition disorders (TEAE) ([1]; 100 mg QD (n = 6)): 0 number of subjects (%)
Musculoskeletal and connective tissue disorders (TEAE) ([1]; 100 mg QD (n = 6)): 0 number of subjects (%)
Musculoskeletal stiffness (TEAE) ([1]; 100 mg QD (n = 6)): 0 number of subjects (%)
Nausea (TEAE) ([1]; 100 mg QD (n = 6)): 1 (16.7) number of subjects (%)
Nervous system disorders (TEAE) ([1]; 100 mg QD (n = 6)): 3 (50.0) number of subjects (%)
Oropharyngeal pain (TEAE) ([1]; 100 mg QD (n = 6)): 1 (16.7) number of subjects (%)
Respiratory, thoracic, and mediastinal disorders (TEAE) ([1]; 100 mg QD (n = 6)): 1 (16.7) number of subjects (%)
Skin and subcutaneous tissue disorders (TEAE) ([1]; 100 mg QD (n = 6)): 2 (33.3) number of subjects (%)
Somnolence (TEAE) ([1]; 100 mg QD (n = 6)): 0 number of subjects (%)
Vascular disorders (TEAE) ([1]; 100 mg QD (n = 6)): 0 number of subjects (%)
Vomiting (TEAE) ([1]; 100 mg QD (n = 6)): 0 number of subjects (%)
subjects with treatment-emergent abnormality during physical examination ([1]; 100 mg once daily): 1 n
Abdominal discomfort (TEAE) ([1]; 200 mg QD (n = 6)): 1 (16.7) number of subjects (%)
Abdominal distension (TEAE) ([1]; 200 mg QD (n = 6)): 1 (16.7) number of subjects (%)
Abdominal pain (TEAE) ([1]; 200 mg QD (n = 6)): 1 (16.7) number of subjects (%)
Abdominal pain upper (TEAE) ([1]; 200 mg QD (n = 6)): 0 number of subjects (%)
Any TEAE ([1]; 200 mg QD (n = 6)): 5 (83.3) number of subjects (%)
Decreased appetite (TEAE) ([1]; 200 mg QD (n = 6)): 1 (16.7) number of subjects (%)
Dehydration (TEAE) ([1]; 200 mg QD (n = 6)): 2 (33.3) number of subjects (%)
Diarrhea (TEAE) ([1]; 200 mg QD (n = 6)): 1 (16.7) number of subjects (%)
Disturbance in attention (TEAE) ([1]; 200 mg QD (n = 6)): 1 (16.7) number of subjects (%)
Dizziness (TEAE) ([1]; 200 mg QD (n = 6)): 1 (16.7) number of subjects (%)
Dry skin (TEAE) ([1]; 200 mg QD (n = 6)): 0 number of subjects (%)
Ecchymosis (TEAE) ([1]; 200 mg QD (n = 6)): 0 number of subjects (%)
Erythema (TEAE) ([1]; 200 mg QD (n = 6)): 0 number of subjects (%)
Fatigue (TEAE) ([1]; 200 mg QD (n = 6)): 3 (50.0) number of subjects (%)
Flatulence (TEAE) ([1]; 200 mg QD (n = 6)): 1 (16.7) number of subjects (%)
Gastrointestinal disorders (TEAE) ([1]; 200 mg QD (n = 6)): 4 (66.7) number of subjects (%)
General disorders and administration site conditions (TEAE) ([1]; 200 mg QD (n = 6)): 3 (50.0) number of subjects (%)
Headache (TEAE) ([1]; 200 mg QD (n = 6)): 4 number of subjects (%) and 4 (66.7) number of subjects (%)
Hot flush (TEAE) ([1]; 200 mg QD (n = 6)): 1 (16.7) number of subjects (%)
Metabolism and nutrition disorders (TEAE) ([1]; 200 mg QD (n = 6)): 2 (33.3) number of subjects (%)
Musculoskeletal and connective tissue disorders (TEAE) ([1]; 200 mg QD (n = 6)): 1 (16.7) number of subjects (%)
Musculoskeletal stiffness (TEAE) ([1]; 200 mg QD (n = 6)): 1 (16.7) number of subjects (%)
Nausea (TEAE) ([1]; 200 mg QD (n = 6)): 2 (33.3) number of subjects (%)
Nervous system disorders (TEAE) ([1]; 200 mg QD (n = 6)): 5 (83.3) number of subjects (%)
Oropharyngeal pain (TEAE) ([1]; 200 mg QD (n = 6)): 2 (33.3) number of subjects (%)
Respiratory, thoracic, and mediastinal disorders (TEAE) ([1]; 200 mg QD (n = 6)): 2 (33.3) number of subjects (%)
Skin and subcutaneous tissue disorders (TEAE) ([1]; 200 mg QD (n = 6)): 0 number of subjects (%)
Somnolence (TEAE) ([1]; 200 mg QD (n = 6)): 1 (16.7) number of subjects (%)
Vascular disorders (TEAE) ([1]; 200 mg QD (n = 6)): 1 (16.7) number of subjects (%)
Vomiting (TEAE) ([1]; 200 mg QD (n = 6)): 2 (33.3) number of subjects (%)
subjects with treatment-emergent abnormality during physical examination ([1]; 200 mg once daily): 2 n
TEAE leading to study drug withdrawal: abdominal pain ([1]; 200-mg once-daily group): 1 n
TEAE leading to study drug withdrawal: decreased appetite ([1]; 200-mg once-daily group): 1 n
TEAE leading to study drug withdrawal: dehydration ([1]; 200-mg once-daily group): 2 n
TEAE leading to study drug withdrawal: diarrhea ([1]; 200-mg once-daily group): 1 n
TEAE leading to study drug withdrawal: dizziness ([1]; 200-mg once-daily group): 1 n
TEAE leading to study drug withdrawal: fatigue ([1]; 200-mg once-daily group): 2 n
TEAE leading to study drug withdrawal: flatulence ([1]; 200-mg once-daily group): 1 n
TEAE leading to study drug withdrawal: headache ([1]; 200-mg once-daily group): 3 n
TEAE leading to study drug withdrawal: musculoskeletal stiffness ([1]; 200-mg once-daily group): 1 n
TEAE leading to study drug withdrawal: nausea ([1]; 200-mg once-daily group): 1 n
TEAE leading to study drug withdrawal: vomiting ([1]; 200-mg once-daily group): 2 n
subjects in whom study drug was withdrawn ([1]; 200-mg once-daily group): 3 subjects
subjects with abnormally high hematocrit, hemoglobin and red blood cell count ([1]; 200-mg once-daily group, day 8): Two
maximum tolerated dose ([1]; multiple doses, healthy male subjects): 100 mg once daily
oral absolute exposure [2]: ≥ 68%

— publication PMC8453901, “GLPG1205, a GPR84 Modulator: Safety, Pharmacokinetics, and Pharmacodynamics in Healthy Subjects” (Clinical Pharmacology in Drug Development, 2021)
